As usually defined, the IC50 is the concentration that gives 50% inhibition. As usually defined, the Cmax is the peak of the concentration-time curve. One may read the Tmax as the time at which the peak concentration occurs. For orientation: half-life means how long it takes for the measured level to halve. The low end stands for fast loss, the high end for slow loss.

Where “and” joins values, the source holds several entries; their conditions need not be identical. Identical values can stand only once. Like-named read-outs stand apart in the source and are kept apart here.

The record followed here is patent US12152017B2, “Ketoamide compound and preparation method, pharmaceutical composition, and use thereof” (Shanghai Institute of Materia Medica, Chinese Academy of …, priority 2018, dated 2024).

For one data set, the system named is MERS-CoV pseudovirus. Nature of the data set: microbe, parasite or virus in culture. It is filed as cell-based. As to conditions: Middle East respiratory syndrome-related coronavirus, Huh-7, read-out: MERS-CoV pseudovirus inhibitory activity IC50.
Data set [1] in a line: Pharmacokinetic study in CD-1 mice (gavage, intravenous, intraperitoneal). It is filed as in vivo. The settings on record: 20 mg/kg; for Cmax / Tmax / half-life / AUC(0-inf) / AUC(0-t) / MRT inf: male, CD-1, mouse, plasma; for AUC(0-inf): read-out: AUC INF_obs; for MRT inf: read-out: MRT INF_obs. The method, then: Nine CD-1 mice, male, weighing 18-22 g, were randomly divided into 3 groups with 3 mice in each group. The test compounds were administered by gavage, intravenously and intraperitoneally according to the following schemes.
Before the test, they were fasted for 12 hours and were allowed to drink water freely, and were fed uniformly 2 h after administration.
There were 3 animals at each time point.
The solution for gavage administration was formulated with DMSO/0.5% HPMC (5/95, v/v) into the final concentration. Intravenous and intraperitoneal administration were formulated with DMSO/PEG300/EtOH/NaCl (5/40/5/50, v/v/v). Retention samples of the dosing solution (50 μL of the drug solution was taken and mixed well with 50 μL of DMSO before and after the administration) for testing.
The drug was administered according to the above dosage, the time of administration were recorded, and 20 μL of blood was collected from the mouse femoral plexus at the above set time point and placed in a heparinized test tube and centrifuged immediately at 11000 rpm for 5 min. 10 μL of plasma was immediately and accurately drawn into a centrifuge tube pre-filled with 100 μL of PK-IS solution (prepared with methanol:acetonitrile (1:1, v/v)), mixed well, and frozen to store at −20° C. for testing.

Setting [2] is: i.p. (20 mg/Kg per Table 3), individual animal.
[3] abbreviates: ip, i.p. (20 mg/Kg per Table 3), Mean of 3 mice.
Setting [4] is: ip, i.p. (20 mg/Kg per Table 3), individual animal.
[5] abbreviates: po, p.o. (gavage 20 mg/Kg per Table 3), Mean of 3 mice.
Where [6] appears, read: po, p.o. (gavage 20 mg/Kg per Table 3), individual animal.
The mark [7] stands for this setting: p.o. (gavage 20 mg/Kg per Table 3), individual animal.

In the case of `O=C(NCc1ccccc1)C(=O)[C@H](C[C@@H]1CCCNC1=O)NC(=O)[C@H](CC1CCCCC1)NC(=O)c1cc2ccc(F)cc2[nH]1` [Example A240], the IC50 in the data set on MERS-CoV pseudovirus amounted to 15.9 ± 7 nM.

For the molecule `Cn1c(C(=O)N[C@@H](CC2CCCCC2)C(=O)N[C@@H](C[C@@H]2CCCNC2=O)C(=O)C(=O)NCc2ccccc2)cc2ccccc21` [Example A27], the half-inhibitory concentration (IC50) with MERS-CoV pseudovirus turned out to be 8 ± 4 nM.

As to `Cc1ccc2oc(C(=O)NC(CC3CCCCC3)C(=O)N[C@@H](C[C@@H]3CCCNC3=O)C(=O)C(=O)NCc3ccccc3)c(C)c2c1` (stereo partly shown) [Example A247], the IC50 in the data set on MERS-CoV pseudovirus was 1.7 ± 0.4 nM.

As to `CC(C)NC(=O)CC[C@H](NC(=O)[C@H](CC1CCCCC1)NC(=O)c1cc2ccccc2[nH]1)C(=O)C(=O)NCc1ccccc1` [Example A232, N—((S)-1-(((S)-4-(benzyl)-3,4-dione-1-(isopropylamino)-2-yl)amino)-3-(cyclohexyl)-1-oxopropan-2-yl)-1H-indole-2-carboxamide], the IC50 in the data set with MERS-CoV pseudovirus was 13.4 ± 3 nM.

`O=C(NCc1ccccc1)C(=O)[C@H](C[C@@H]1CCNC1=O)NC(=O)[C@H](CC1CCCCC1)NC(=O)c1cc2ccccc2o1` [Example A9, N—((S)-1-(((S)-4-(benzylamino)-3,4-dione-1-((S)-2-oxopyrrolidine-3-yl)but-2-yl)amino)-3-cyclohexyl-1-oxopropan-2-yl)-benzofuran-2-carboxamide]: the IC50 with MERS-CoV pseudovirus came to 1 ± 0.7 nM. Also, in data set [1] (setting [2]), the “AUC INF_obs” value is 6825 ng·h/mL and 10574 ng·h/mL; the AUC last is 6786 ng·h/mL and 10138 ng·h/mL; the C max was 2859 ng/mL and 2364 ng/mL; the “MRT INF_obs” value is 2.70 h and 3.19 h and 6.07 h. Also, in data set [1] (setting [2]), the T1/2 is 3.67 h and 5.11 h; the T max is listed as 0.75 h. Further, in data set [1] (setting [3]), the Cmax was 2910 ng/mL, the time to peak (Tmax) was 0.42 h, the half-life was 4.02 h and the AUC(0-inf) amounted to 8360 ng·h/mL. The MRT inf in data set [1] (setting [3]) was 3.99 h. The AUC(0-t) in data set [1] (ip, i.p. (20 mg/Kg per Table 3), Mean of 3 mice, read-out: AUC last (exposure for intraperitoneal injection)) came out at 8190 ng·h/mL. Also, in data set [1] (setting [4]), the highest concentration (Cmax) was 3520 ng/mL, the half-life was 3.28 h and the AUC(0-inf) stood at 7670 ng·h/mL. In data set [1] (ip, i.p. (20 mg/Kg per Table 3), individual animal, read-out: AUC last), the AUC(0-t) is 7650 ng·h/mL. In data set [1] (setting [5]), the Cmax amounted to 498 ng/mL, the Tmax was found to be 0.25 h, the half-life was 1.27 h and the AUC(0-inf) was 589 ng·h/mL. In data set [1] (setting [5]), the MRT inf stood at 1.77 h. For the same molecule, the AUC(0-t) in data set [1] (po, p.o. (gavage 20 mg/Kg per Table 3), Mean of 3 mice, read-out: AUC last (oral exposure)) worked out at 584 ng·h/mL. For the same molecule, in data set [1] (setting [6]), the time to peak (Tmax) stood at 0.25 h, the half-life was 1.13 h and the MRT inf came out at 1.35 h. In addition, in data set [1] (setting [7]), the “AUC INF_obs” value is 451 ng·h/mL and 1146 ng·h/mL and 171 ng·h/mL; the AUC last is 447 ng·h/mL and 1143 ng·h/mL and 163 ng·h/mL; the C max is 546 ng/mL and 864 ng/mL and 84 ng/mL; the “MRT INF_obs” value was 1.33 h and 2.63 h. For the same molecule, the T1/2 in data set [1] (setting [7]) was 0.91 h and 1.77 h.

On to `O=C(NCc1ccccc1)C(=O)[C@H](C[C@@H]1CCCNC1=O)NC(=O)C(CC1CCCCC1)NC(=O)C1=Cc2cc(Cl)ccc2OC1` (stereo partly shown) [Example A250], for which the IC50 with MERS-CoV pseudovirus was found to be 0.7 ± 0.1 nM.

`O=C(NCc1ccccc1)C(=O)[C@H](C[C@@H]1CCCNC1=O)NC(=O)C(CC1CCCCC1)NC(=O)c1nc2ccccc2[nH]1` (stereo partly shown) [Example A244]: the IC50 in the data set on MERS-CoV pseudovirus turned out to be 12.6 ± 12.2 nM.

For `Cc1c(C(=O)NC(CC2CCCCC2)C(=O)N[C@@H](C[C@@H]2CCCNC2=O)C(=O)C(=O)NCc2ccccc2)oc2ccccc12` (stereo partly shown) [Example A246], the half-maximal inhibitory concentration (IC50) with MERS-CoV pseudovirus was 10.8 ± 10 nM.

On to `O=C(NC1CCCCC1)C(=O)[C@H](C[C@@H]1CCCNC1=O)NC(=O)[C@H](CC1CCCCC1)NC(=O)c1cc2ccccc2o1` [Example A15], for which, in the data set on MERS-CoV pseudovirus, the IC50 was less than 0.1 nM.

For the molecule `O=C(NCc1ccccc1)C(=O)[C@H](C[C@@H]1CCCNC1=O)NC(=O)C(CC1CCCCC1)NC(=O)c1coc2ccccc12` (stereo partly shown) [Example A249], in the data set with MERS-CoV pseudovirus, the IC50 stood at 0.6 ± 0.2 nM.

Consider `O=C(NCc1ccccc1)C(=O)[C@H](C[C@@H]1CCCNC1=O)NC(=O)[C@H](CC1CCCCC1)NC(=O)c1cc2ccccc2s1` [Example A21], for which the IC50 in the data set with MERS-CoV pseudovirus is 8.2 ± 3.2 nM.

On to `O=C(NCc1ccccc1)C(=O)[C@H](C[C@@H]1CCCNC1=O)NC(=O)[C@H](Cc1ccccc1)NC(=O)c1cc2ccccc2[nH]1` [Example A51, N—((S)-1-(((S)-4-(benzylamino)-3,4-dione-1-((S)-2-oxopiperidine-3-yl)but-2-yl)amino)-1-oxo-3-phenylpropan-2-yl)-1H-indole-2-carboxamide], for which the IC50 with MERS-CoV pseudovirus was less than 0.1 nM.

For the molecule `COc1cccc2cc(C(=O)NC(CC3CCCCC3)C(=O)N[C@@H](C[C@@H]3CCCNC3=O)C(=O)C(=O)NCc3ccccc3)oc12` (stereo partly shown) [Example A245], in the data set with MERS-CoV pseudovirus, the IC50 is 18.4 ± 8 nM.

`COc1ccc(OC)c2oc(C(=O)NC(CC3CCCCC3)C(=O)N[C@@H](C[C@@H]3CCCNC3=O)C(=O)C(=O)NCc3ccccc3)cc12` (stereo partly shown) [Example A248]: the 50% inhibitory concentration (IC50) with MERS-CoV pseudovirus is 8.4 ± 1.7 nM.

Regarding `O=C(NCc1ccccc1)C(=O)[C@H](C[C@@H]1CCCNC1=O)NC(=O)[C@H](Cc1ccccc1)NC(=O)c1cnc2ccccc2n1` [Example A81, N—((S)-1-(((S)-4-(benzylamino)-3,4-dione-1-((S)-2-oxopiperidine-3-yl)but-2-yl)amino)-1-oxo-3-phenylpropan-2-yl)-quinoxaline-2-carboxamide], the IC50 with MERS-CoV pseudovirus worked out at 0.2 ± 0.1 nM.

As for `O=C(NCc1ccccc1)C(=O)[C@H](C[C@@H]1CCCNC1=O)NC(=O)C(CC1CCCCC1)NC(=O)c1ccc2c(c1)OCO2` (stereo partly shown) [Example A243], the IC50 in the data set with MERS-CoV pseudovirus is 10.7 ± 0.8 nM.

On to `Cn1c(C(=O)N[C@@H](CC2CCCCC2)C(=O)N[C@@H](C[C@@H]2CCNC2=O)C(=O)C(=O)NC2CCCCC2)cc2ccccc21` [Example A26, N—((S)-3-cyclohexyl-1-(((S)-4-(cyclohexylamino)-3,4-dione-1-((S)-2-oxopyrrolidine-3-yl)but-2-yl)amino)-3-cyclohexyl-1-oxopropan-2-yl)-1-methyl-1H-indole-2-carboxamide], for which, in the data set on MERS-CoV pseudovirus, the 50% inhibitory concentration (IC50) turned out to be 7.8 ± 3.5 nM.

For `O=C(NCc1ccccc1)C(=O)[C@H](C[C@@H]1CCCNC1=O)NC(=O)[C@H](CC1CCCCC1)NC(=O)c1cc2ccccc2[nH]1` [Example A5], in the data set on MERS-CoV pseudovirus, the IC50 worked out at 0.5 ± 0.2 nM.

With `CC(C)(C)NC(=O)C(=O)[C@H](C[C@@H]1CCNC1=O)NC(=O)[C@H](CC1CCCCC1)NC(=O)c1ccc2ccccc2n1` [Example A43], the IC50 in the data set on MERS-CoV pseudovirus was 786 ± 458 nM.

With `Cn1c(C(=O)N[C@@H](CC2CCCCC2)C(=O)N[C@@H](C[C@@H]2CCNC2=O)C(=O)C(=O)NC(C)(C)C)cc2ccccc21` [Example A25], in the data set with MERS-CoV pseudovirus, the IC50 stood at 407 ± 352 nM.

Turning to `CC(C)NC(=O)CC[C@H](NC(=O)[C@H](CC1CCCCC1)NC(=O)c1cnc2ccccc2n1)C(=O)C(=O)NCc1ccccc1` [Example A236, N—((S)-1-(((S)-4-(benzyl)-3,4-dione-1-(isopropylamino)-2-yl)amino)-3-(cyclohexyl)-1-oxopropan-2-yl)-quinoxaline-2-carboxamide], the IC50 in the data set on MERS-CoV pseudovirus stood at 16.6 ± 4 nM.

For `O=C(NC1CCCCC1)C(=O)[C@H](C[C@@H]1CCNC1=O)NC(=O)[C@H](CC1CCCCC1)NC(=O)c1ccc2ccccc2n1` [Example A44, N—((S)-3-cyclohexyl-1-(((S)-4-(cyclohexylamino)-3,4-dione-1-((S)-2-oxopyrrolidine-3-yl)but-2-yl)amino)-3-cyclohexyl-1-oxopropan-2-yl)-quinoline-2-carboxamide], in the data set on MERS-CoV pseudovirus, the IC50 was 18 ± 5.6 nM.
